According to ChEMBL document CHEMBL1201862, “PubChem BioAssay data set” (2004):
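Interpolation was linear, between the two tested concentrations surrounding the appropriate level; five concentrations were tested over 48 hours in 96-well plates. GI50 = concentration required for 50% inhibition of growth.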 Activity calls are given as the source filed them. No stated cut-off is given here; in the data, active = GI50 up to about 1.1 µM and inactive = higher.

Tests used:
Assay in all cases: NCI-60 cell line screen, 48 h
SN12C = tested on: SN12C
DU-145 = tested on: DU-145
NCI-H522 = tested on: NCI-H522
NCI/ADR-RES = tested on: NCI/ADR-RES
SF-539 = tested on: SF-539
SW-620 = tested on: SW-620
K562 = tested on: K562
CAKI-1 = tested on: CAKI-1
SK-MEL-2 = tested on: SK-MEL-2
SK-MEL-5 = tested on: SK-MEL-5
M14 = tested on: M14
HCT-116 = tested on: HCT-116
MDA-MB-231 = tested on: MDA-MB-231
LOX IMVI = tested on: LOX IMVI
IGROV-1 = tested on: IGROV-1
UO-31 = tested on: UO-31
OVCAR-3 = tested on: OVCAR-3
SNB-19 = tested on: SNB-19
RXF 393 = tested on: RXF 393
EKVX = tested on: EKVX

Structure (SMILES) | GI50 (SN12C) | GI50 (DU-145) | GI50 (NCI-H522) | GI50 (NCI/ADR-RES) | GI50 (SF-539) | GI50 (SW-620) | GI50 (K562) | GI50 (CAKI-1) | GI50 (SK-MEL-2) | GI50 (SK-MEL-5) | GI50 (M14) | GI50 (HCT-116) | GI50 (MDA-MB-231) | GI50 (LOX IMVI) | GI50 (IGROV-1) | GI50 (UO-31) | GI50 (OVCAR-3) | GI50 (SNB-19) | GI50 (RXF 393) | GI50 (EKVX)
Cc1cc(S(=O)(=O)N/C(=N/N)NCCc2ccccc2)c(S)cc1Cl | 33.5 µM (inactive) | 18.5 µM (inactive) | 29.6 µM (inactive) | 22.9 µM (inactive) | 24 µM (inactive) | 24 µM (inactive) | 30.6 µM (inactive) | 26.4 µM (inactive) | 38.2 µM (inactive) | 19.2 µM (inactive) | 24.1 µM (inactive) | 25.1 µM (inactive) | 29.6 µM (inactive) | 29.6 µM (inactive) | 36 µM (inactive) | 27.6 µM (inactive) | 24.5 µM (inactive) | 18.1 µM (inactive) | 21.7 µM (inactive) | 34.8 µM (inactive)
CCOC(=O)C(=CNc1ccc(S(N)(=O)=O)cc1)C(=O)OCC | > 100 µM (inactive) | > 100 µM (inactive) | > 100 µM (inactive) | > 100 µM (inactive) | > 100 µM (inactive) | > 100 µM (inactive) | > 100 µM (inactive) | > 100 µM (inactive) | > 100 µM (inactive) | > 100 µM (inactive) | > 100 µM (inactive) | > 100 µM (inactive) | > 100 µM (inactive) | > 100 µM (inactive) | > 100 µM (inactive) | > 100 µM (inactive) | > 100 µM (inactive) | > 100 µM (inactive) | > 100 µM (inactive) | > 100 µM (inactive)
CN1CCC(n2[nH]c(-c3ccccc3)c(Cc3ccccc3)c2=O)CC1 [BENZPIPERYLON] | > 100 µM (inactive) | 97.3 µM (inactive) | > 100 µM (inactive) | > 100 µM (inactive) | 57.1 µM (inactive) | > 100 µM (inactive) | 42.2 µM (inactive) | > 100 µM (inactive) | > 100 µM (inactive) | > 100 µM (inactive) | > 100 µM (inactive) | 75.9 µM (inactive) | > 100 µM (inactive) | > 100 µM (inactive) | 59.7 µM (inactive) | 88.9 µM (inactive) | > 100 µM (inactive) | > 100 µM (inactive) | 63 µM (inactive) | > 100 µM (inactive)
COc1ccc(-c2cs/c(=N\c3ccccc3)n2CC(O)c2ccc([N+](=O)[O-])cc2)cc1 (stereo not given) | > 100 µM (inactive) | > 100 µM (inactive) | > 100 µM (inactive) | > 74.5 µM (inactive) | > 100 µM (inactive) | > 100 µM (inactive) | 3.84 µM (inactive) | > 100 µM (inactive) | > 100 µM (inactive) | 4.04 µM (inactive) | > 100 µM (inactive) | > 29.9 µM (inactive) | > 100 µM (inactive) | > 100 µM (inactive) | > 100 µM (inactive) | > 100 µM (inactive) | > 100 µM (inactive) | > 100 µM (inactive) | > 100 µM (inactive) | > 100 µM (inactive)
Cc1cc(C)n(-c2nc(-n3nc(C)cc3C)nc(-n3nc(C)cc3C)n2)n1 | > 100 µM (inactive) | > 100 µM (inactive) | > 100 µM (inactive) | > 100 µM (inactive) | > 100 µM (inactive) | > 100 µM (inactive) | 59.2 µM (inactive) | 39.2 µM (inactive) | > 100 µM (inactive) | > 100 µM (inactive) | > 100 µM (inactive) | > 100 µM (inactive) | > 100 µM (inactive) | > 100 µM (inactive) | > 100 µM (inactive) | 43.3 µM (inactive) | > 100 µM (inactive) | > 100 µM (inactive) | > 100 µM (inactive) | 40.2 µM (inactive)
O=C1c2cccnc2C(=O)C2C3C=CC(C3)C12 (stereo not given) | 12.8 µM (inactive) | 6.92 µM (inactive) | 3.27 µM (inactive) | 4.52 µM (inactive) | 2.4 µM (inactive) | 4.41 µM (inactive) | 2.94 µM (inactive) | 14.4 µM (inactive) | 5.08 µM (inactive) | 10.8 µM (inactive) | 13.3 µM (inactive) | 3.85 µM (inactive) | 2.78 µM (inactive) | 3.66 µM (inactive) | 10.6 µM (inactive) | 11.8 µM (inactive) | 13.5 µM (inactive) | 15 µM (inactive) | 2.69 µM (inactive) | 13.4 µM (inactive)
COC(=O)C1OC(O[C@H]2CC[C@]3(C)[C@H]4CC=C5[C@@H]6CC(C)(C)CC[C@]6(C(=O)OC6OCC(O)C(O)C6OC6OC(C)C(OC7OCC(O)C(O)C7O)C(OC7OCC(O)(CO)C7O)C6O)[C@H](O)C[C@@]5(C)[C@]4(C)CC[C@H]3C2(C)C)C(O)C(O)C1O (stereo not given in full) | 1.85 µM (inactive) | 8.53 µM (inactive) | 2.14 µM (inactive) | 4.91 µM (inactive) | 31.6 µM (inactive) | 6.28 µM (inactive) | 5.08 µM (inactive) | 4.69 µM (inactive) | 2.56 µM (inactive) | 4.65 µM (inactive) | 2.82 µM (inactive) | 3.61 µM (inactive) | 2.32 µM (inactive) | 7.64 µM (inactive) | 12.1 µM (inactive) | 1.81 µM (inactive) | 8.63 µM (inactive) | 5.57 µM (inactive) | 10.9 µM (inactive) | 2.77 µM (inactive)
CO/N=C1\CC(C)N2C(=O)C(C(C)C)NC(=O)C(NC(=O)c3c4nc5c(C(=O)NC6C(=O)NC(C(C)C)C(=O)N7C(C)CC(O)C7C(=O)N(C)CC(=O)N(C)C(C(C)C)C(=O)OC6C)ccc(C)c5oc-4c(C)c(=O)c3N)C(CO)OC(=O)C(C)N(C)C(=O)CN(C)C(=O)C12 (stereo not given) | 0.416 µM (active) | 1.97 µM (inactive) | 0.249 µM (active) | 16.6 µM (inactive) | 0.348 µM (active) | 0.346 µM (active) | 0.159 µM (active) | 4.54 µM (inactive) | 0.308 µM (active) | 0.174 µM (active) | 2.26 µM (inactive) | 0.321 µM (active) | 0.656 µM (active) | 0.156 µM (active) | 0.191 µM (active) | 2.23 µM (inactive) | 1.42 µM (inactive) | 0.684 µM (active) | 0.865 µM (active) | 4 µM (inactive)
CCCCCN(CCCCC)CC(C)(C)C(O)c1ccc(OC)c2ccccc12 (stereo not given) | 11.5 µM (inactive) | 12.5 µM (inactive) | 6.79 µM (inactive) | 7.05 µM (inactive) | 3.89 µM (inactive) | 10 µM (inactive) | 3.01 µM (inactive) | 11.6 µM (inactive) | 18.2 µM (inactive) | 3.52 µM (inactive) | 1.4 µM (inactive) | 12.9 µM (inactive) | 13.8 µM (inactive) | 1.68 µM (inactive) | 2.59 µM (inactive) | 2.25 µM (inactive) | 8.34 µM (inactive) | 10.7 µM (inactive) | 7.78 µM (inactive) | 12.1 µM (inactive)
NCCN(CCN)/[N+]([O-])=N/O | > 100 µM (inactive) | > 100 µM (inactive) | 93.3 µM (inactive) | 82.8 µM (inactive) | > 100 µM (inactive) | > 100 µM (inactive) | 50.5 µM (inactive) | > 100 µM (inactive) | > 100 µM (inactive) | > 100 µM (inactive) | 72.8 µM (inactive) | > 100 µM (inactive) | > 100 µM (inactive) | > 100 µM (inactive) | > 100 µM (inactive) | > 100 µM (inactive) | > 100 µM (inactive) | > 100 µM (inactive) | > 100 µM (inactive) | > 100 µM (inactive)
NNC(=O)Nc1nc2ccc(NN)cc2[nH]1 | 42.2 µM (inactive) | 97.7 µM (inactive) | 29.6 µM (inactive) | 47.8 µM (inactive) | 12.6 µM (inactive) | 23.8 µM (inactive) | 18.7 µM (inactive) | 41.7 µM (inactive) | 44 µM (inactive) | 22.9 µM (inactive) | 31.5 µM (inactive) | 32.8 µM (inactive) | 51.9 µM (inactive) | 43.1 µM (inactive) | 42 µM (inactive) | 60.5 µM (inactive) | 24.5 µM (inactive) | 58.5 µM (inactive) | 25 µM (inactive) | 65.5 µM (inactive)
